Data as given in a compilation of properties of binary mixtures (doi:10.1021/acs.jced.9b00648).

Test: xn = mol fraction of the nth substance listed
Details: 100 kPa

CC#N + C=C[n+]1ccn(CC(N)=O)c1.O=S(=O)([N-]S(=O)(=O)C(F)(F)F)C(F)(F)F
x2 = 0
Details | viscosity [mPa·s]
298.15 K | 0.344
303.15 K | 0.324
308.15 K | 0.308
313.15 K | 0.293
318.15 K | 0.277
328.15 K | 0.246
333.15 K | 0.219

C=C[n+]1ccn(CC(N)=O)c1.O=S(=O)([N-]S(=O)(=O)C(F)(F)F)C(F)(F)F + CC#N
Details | electrical conductivity [S/m] | viscosity [mPa·s]
298.15 K, x1 = 0.02 | 2.52 | –
298.15 K, x1 = 0.047 | 3.16 | –
298.15 K, x1 = 0.05 | – | 2.88
298.15 K, x1 = 0.07 | 3.32 | –
298.15 K, x1 = 0.08 | 3.26 | –
298.15 K, x1 = 0.1 | 3.06 | 10.3
298.15 K, x1 = 0.2 | 1.6 | –
298.15 K, x1 = 0.201 | – | 75
298.15 K, x1 = 0.3026 | – | 276
298.15 K, x1 = 0.393 | 0.39 | –
298.15 K, x1 = 0.4011 | – | 810
298.15 K, x1 = 1 | 0.01 | 281
303.15 K, x1 = 0.01 | 1.34 | 0.64
303.15 K, x1 = 0.02 | 2.64 | –
303.15 K, x1 = 0.047 | 3.32 | –
303.15 K, x1 = 0.05 | – | 2.84
303.15 K, x1 = 0.08 | 3.47 | –
303.15 K, x1 = 0.3026 | – | 247
303.15 K, x1 = 1 | 0.02 | 140
308.15 K, x1 = 0.047 | 3.52 | –
308.15 K, x1 = 0.05 | – | 2.71
308.15 K, x1 = 0.07 | 3.74 | –
308.15 K, x1 = 0.08 | 3.72 | –
308.15 K, x1 = 0.1 | 3.53 | 9.2
308.15 K, x1 = 0.2 | 1.98 | –
308.15 K, x1 = 0.3026 | – | 202
308.15 K, x1 = 0.393 | 0.6 | –
308.15 K, x1 = 0.4011 | – | 550
313.15 K, x1 = 0.01 | 1.47 | 0.57
313.15 K, x1 = 0.02 | 2.9 | –
313.15 K, x1 = 0.047 | 3.7 | –
313.15 K, x1 = 0.05 | – | 2.49
313.15 K, x1 = 0.07 | 3.96 | –
313.15 K, x1 = 0.08 | 3.95 | –
313.15 K, x1 = 0.2 | 2.19 | –
313.15 K, x1 = 0.201 | – | 51
313.15 K, x1 = 0.3026 | – | 163
313.15 K, x1 = 0.393 | 0.73 | –
313.15 K, x1 = 1 | 0.05 | 35.3
318.15 K, x1 = 0.02 | 3.01 | –
318.15 K, x1 = 0.05 | – | 2.39
318.15 K, x1 = 0.07 | 4.16 | –
318.15 K, x1 = 0.08 | 4.17 | –
318.15 K, x1 = 0.1 | 4.02 | 7.7
318.15 K, x1 = 0.201 | – | 45.9
318.15 K, x1 = 0.3026 | – | 142
318.15 K, x1 = 0.393 | 0.86 | –
318.15 K, x1 = 0.4011 | – | 352
318.15 K, x1 = 1 | 0.07 | 19.8
323.15 K, x1 = 0.01 | 1.58 | 0.52
323.15 K, x1 = 0.02 | 3.13 | –
323.15 K, x1 = 0.047 | 4.03 | –
323.15 K, x1 = 0.05 | – | 2.26
323.15 K, x1 = 0.07 | 4.36 | –
323.15 K, x1 = 0.1 | 4.25 | 7
323.15 K, x1 = 0.201 | – | 40.2
323.15 K, x1 = 0.393 | 1 | –
323.15 K, x1 = 0.4011 | – | 288
328.15 K, x1 = 0.01 | 1.65 | 0.48
328.15 K, x1 = 0.02 | 3.25 | –
328.15 K, x1 = 0.047 | 4.19 | –
328.15 K, x1 = 0.05 | – | 2.17
328.15 K, x1 = 0.08 | 4.61 | –
328.15 K, x1 = 0.2 | 2.8 | –
328.15 K, x1 = 0.201 | – | 36.8
328.15 K, x1 = 0.3026 | – | 105
328.15 K, x1 = 0.393 | 1.16 | –
333.15 K, x1 = 0.01 | 1.69 | 0.47
333.15 K, x1 = 0.02 | 3.35 | –
333.15 K, x1 = 0.05 | – | 2.01
333.15 K, x1 = 0.07 | 4.79 | –
333.15 K, x1 = 0.08 | 4.77 | –
333.15 K, x1 = 0.1 | 4.72 | 6.1
333.15 K, x1 = 0.2 | 3 | –
333.15 K, x1 = 0.3026 | – | 90
333.15 K, x1 = 0.393 | 1.33 | –
333.15 K, x1 = 0.4011 | – | 193
333.15 K, x1 = 1 | 0.2 | 6.2

O=S(=O)([N-]S(=O)(=O)C(F)(F)F)C(F)(F)F.[Li+] + CC#N
electrical conductivity [S/m]
Details | 298.15 K | 303.15 K | 308.15 K | 313.15 K | 318.15 K | 323.15 K | 328.15 K | 333.15 K
x1 = 0.0207 | 2.67 | – | 2.91 | – | 3.14 | 3.24 | 3.34 | 3.47
x1 = 0.0307 | 3.11 | – | – | 3.47 | 3.58 | 3.7 | 3.81 | 3.92
x1 = 0.0405 | 3.53 | 3.68 | – | 4.01 | – | 4.29 | 4.43 | 4.57
x1 = 0.0501 | 3.93 | 4.1 | – | 4.47 | – | 4.81 | – | 5.16
x1 = 0.0596 | 4.07 | 4.25 | 4.45 | 4.63 | 4.8 | – | – | –
x1 = 0.0688 | 3.93 | 4.12 | 4.33 | 4.53 | 4.7 | 4.87 | 5.05 | 5.24
x1 = 0.0779 | 3.82 | 4.01 | – | – | 4.52 | 4.74 | 4.95 | 5.17
x1 = 0.0868 | 3.65 | 3.84 | 4.05 | 4.26 | 4.45 | 4.63 | 4.82 | 4.99
